Measured values: patent US7893074B2, “2, 4-pyrimidinediamines useful in the treatment of neoplastic diseases, inflammatory and immune system disorders” (Novartis AG, priority 2003, dated 2011)
Like-named read-outs stand apart in the source and are kept apart here.

Tests used:
[1] = tested on: Mouse mammary carcinoma 4T1 cells; test: Anchorage-independent tumor cell growth assay; type: cell-based
Description: Cells are cultured for 2 h and inhibitors are added at various concentrations in a final concentration of 0.1% DMSO. After 48 h, cell growth is assayed with the cell counting kit-8 (Wako Pure Chemical), which uses a water soluble tetrazolium salt WST8. Twenty μL of the reagent is added into each well and cells are further cultured for 2 h. The optical density is measured at 450 nm.

[2] = target: FAK (Mus musculus, UniProt P34152); test: Phos IC50 (phosphorylation); type: cell-based
FAK, sequence (P34152 2-1052): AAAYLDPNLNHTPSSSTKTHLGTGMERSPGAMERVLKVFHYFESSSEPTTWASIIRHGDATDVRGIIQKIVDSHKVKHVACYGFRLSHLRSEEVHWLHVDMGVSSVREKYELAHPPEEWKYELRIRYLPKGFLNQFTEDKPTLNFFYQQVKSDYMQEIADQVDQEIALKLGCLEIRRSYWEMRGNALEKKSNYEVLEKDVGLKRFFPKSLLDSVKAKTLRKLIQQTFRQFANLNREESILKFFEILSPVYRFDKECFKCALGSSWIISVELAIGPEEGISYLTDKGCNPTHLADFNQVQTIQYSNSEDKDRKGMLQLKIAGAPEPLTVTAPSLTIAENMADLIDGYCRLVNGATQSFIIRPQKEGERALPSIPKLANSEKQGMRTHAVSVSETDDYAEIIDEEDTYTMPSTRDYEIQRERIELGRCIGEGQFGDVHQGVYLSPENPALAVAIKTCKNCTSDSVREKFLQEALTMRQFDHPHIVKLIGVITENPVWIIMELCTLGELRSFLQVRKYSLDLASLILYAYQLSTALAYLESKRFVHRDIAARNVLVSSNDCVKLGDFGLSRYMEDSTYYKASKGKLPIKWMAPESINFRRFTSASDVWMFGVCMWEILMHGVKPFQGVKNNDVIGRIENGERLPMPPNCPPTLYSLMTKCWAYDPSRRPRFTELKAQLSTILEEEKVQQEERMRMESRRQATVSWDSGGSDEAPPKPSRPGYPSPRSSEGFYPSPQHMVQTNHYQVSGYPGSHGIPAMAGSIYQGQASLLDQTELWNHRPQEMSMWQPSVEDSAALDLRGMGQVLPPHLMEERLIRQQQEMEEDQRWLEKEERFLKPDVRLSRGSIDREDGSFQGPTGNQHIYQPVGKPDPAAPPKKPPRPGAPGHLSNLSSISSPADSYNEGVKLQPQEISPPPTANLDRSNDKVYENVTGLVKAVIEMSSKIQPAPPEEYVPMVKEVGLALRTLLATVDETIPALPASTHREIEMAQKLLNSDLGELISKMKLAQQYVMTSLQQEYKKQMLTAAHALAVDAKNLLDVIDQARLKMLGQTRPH

[3] = tested on: T Cell; test: T Cell Migration; type: cell-based
[4] = target: Focal Adhesion Kinase (FAK) (Homo sapiens, UniProt Q05397); test: FAK assay system (Focal Adhesion Kinase inhibition); type: biochemical
Focal Adhesion Kinase (FAK), sequence (Q05397 384-706): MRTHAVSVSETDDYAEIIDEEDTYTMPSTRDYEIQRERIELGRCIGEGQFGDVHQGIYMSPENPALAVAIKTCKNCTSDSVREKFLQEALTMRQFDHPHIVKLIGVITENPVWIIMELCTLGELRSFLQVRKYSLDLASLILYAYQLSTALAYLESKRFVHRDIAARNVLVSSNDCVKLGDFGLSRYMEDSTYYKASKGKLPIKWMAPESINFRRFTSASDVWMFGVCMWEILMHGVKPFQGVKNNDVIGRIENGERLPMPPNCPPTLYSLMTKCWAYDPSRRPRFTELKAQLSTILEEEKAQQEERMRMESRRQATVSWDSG

[5] = target: IGF-IR (Homo sapiens, UniProt P08069); test: Cellular Capture ELISA of IGF-I induced autophosphorylation of the IGF-IR; type: cell-based; settings: read-out: IGF-1R IC50
IGF-IR, sequence (P08069 31-1367): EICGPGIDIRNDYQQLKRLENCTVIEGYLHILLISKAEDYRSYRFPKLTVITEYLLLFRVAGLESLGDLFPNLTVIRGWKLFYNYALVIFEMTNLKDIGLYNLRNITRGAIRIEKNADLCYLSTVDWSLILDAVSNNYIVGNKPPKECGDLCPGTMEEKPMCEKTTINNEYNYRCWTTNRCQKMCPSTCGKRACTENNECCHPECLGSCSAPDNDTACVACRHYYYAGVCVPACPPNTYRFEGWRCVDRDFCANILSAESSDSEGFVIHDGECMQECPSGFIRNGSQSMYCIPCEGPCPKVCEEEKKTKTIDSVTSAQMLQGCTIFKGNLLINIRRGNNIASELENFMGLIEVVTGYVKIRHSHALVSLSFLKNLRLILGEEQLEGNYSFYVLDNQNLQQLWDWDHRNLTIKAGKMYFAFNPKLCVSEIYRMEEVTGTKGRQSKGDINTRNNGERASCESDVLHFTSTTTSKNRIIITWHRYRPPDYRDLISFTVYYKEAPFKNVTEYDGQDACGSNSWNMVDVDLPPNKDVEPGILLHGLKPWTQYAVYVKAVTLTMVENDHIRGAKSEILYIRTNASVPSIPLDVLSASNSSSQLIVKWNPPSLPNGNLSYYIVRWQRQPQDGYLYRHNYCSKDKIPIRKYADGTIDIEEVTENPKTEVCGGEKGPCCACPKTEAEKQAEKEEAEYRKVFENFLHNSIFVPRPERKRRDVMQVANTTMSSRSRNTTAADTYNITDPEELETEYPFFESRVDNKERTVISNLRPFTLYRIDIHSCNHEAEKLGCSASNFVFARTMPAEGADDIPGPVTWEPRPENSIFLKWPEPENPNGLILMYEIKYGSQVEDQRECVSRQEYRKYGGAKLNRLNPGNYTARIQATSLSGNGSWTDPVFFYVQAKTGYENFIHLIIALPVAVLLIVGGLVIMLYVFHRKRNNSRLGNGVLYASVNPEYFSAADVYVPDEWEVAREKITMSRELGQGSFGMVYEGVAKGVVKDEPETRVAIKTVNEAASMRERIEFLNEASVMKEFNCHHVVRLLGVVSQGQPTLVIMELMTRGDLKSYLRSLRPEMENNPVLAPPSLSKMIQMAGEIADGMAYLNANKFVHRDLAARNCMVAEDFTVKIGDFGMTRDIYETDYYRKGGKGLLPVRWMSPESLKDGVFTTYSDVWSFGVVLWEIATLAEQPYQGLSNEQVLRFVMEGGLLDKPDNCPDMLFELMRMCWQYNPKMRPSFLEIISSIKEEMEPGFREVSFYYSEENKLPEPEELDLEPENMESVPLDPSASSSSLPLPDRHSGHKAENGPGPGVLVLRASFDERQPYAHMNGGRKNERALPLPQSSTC
Description: In this assay the activity of the compounds of the invention against Insulin-like growth factor I (IGF-I) induced autophosphorylation of the IGF-IR is determined.

IC50 ([1]; Mus musculus, 4T1) [nM] | IC50 [2] [nM] | IC50 ([3]; T-cell) [nM] | IC50 ([4]; read-out: FAK IC50) [nM] | IC50 [1] [nM] | IC50 [3] [nM] | IC50 [5] [nM] | Compound | IC50 ([4]; FAK IC50) [nM]
440 | 80 | – | 1.9 | – | – | 3710 | COc1cc(N2CCN(CCO)CC2)ccc1Nc1ncc(Cl)c(Nc2ccccc2S(=O)(=O)C(C)C)n1 [Example 28-2] | –
550 | 100 | 290 | 7.8 | – | – | – | COc1cc(N2CCC(N3CCOCC3)CC2)ccc1Nc1ncc(Cl)c(Nc2ccccc2S(=O)(=O)C(C)C)n1 [Example 28-13] | –
1000 | 110 | 600 | 11 | – | – | – | COc1cc(N2CCC(O)CC2)ccc1Nc1ncc(Cl)c(Nc2ccccc2S(=O)(=O)C(C)C)n1 [Example 28-16] | –
90 | 200 | – | 2.9 | – | – | 2570 | COc1cc(N2CCN(C3CCN(C)CC3)CC2)ccc1Nc1ncc(Cl)c(Nc2ccccc2S(=O)(=O)C(C)C)n1 [Example 28-24] | –
420 | 300 | 500 | 2.4 | – | – | – | COc1cc(N2CCC[C@H](C(N)=O)C2)ccc1Nc1ncc(Cl)c(Nc2ccccc2S(=O)(=O)C(C)C)n1 [Example 28-27] | –
520 | 400 | 1000 | 5.2 | – | – | – | COc1cc(N2CCC[C@@H](C(N)=O)C2)ccc1Nc1ncc(Cl)c(Nc2ccccc2S(=O)(=O)C(C)C)n1 [Example 28-28] | –
2200 | 700 | – | 13 | – | – | 90 | CCC(CC)S(=O)(=O)c1ccccc1Nc1nc(Nc2ccc(N3CCOCC3)cc2OC)ncc1Cl [Example 29-1] | –
370 | 50 | – | 5.9 | – | – | 120 | COc1cc(N2CCOCC2)ccc1Nc1ncc(Cl)c(Nc2ccccc2S(=O)(=O)CC(C)C)n1 [Example 32-2] | –
250 | 60 | – | 5.2 | – | – | 100 | COc1cc(N2CCOCC2)ccc1Nc1ncc(Cl)c(Nc2ccccc2S(=O)(=O)C2CCCC2)n1 [Example 33-2] | –
370 | 100 | – | 8 | – | – | 280 | CCCCS(=O)(=O)c1ccccc1Nc1nc(Nc2ccc(N3CCOCC3)cc2OC)ncc1Cl [Example 34-1] | –

More lines, now with the values behind:

Compound | IC50 ([1]; Mus musculus, 4T1) [nM] | IC50 [2] [nM] | IC50 ([3]; T-cell) [nM] | IC50 ([4]; read-out: FAK IC50) [nM] | IC50 [1] [nM] | IC50 [3] [nM] | IC50 [5] [nM] | IC50 ([4]; FAK IC50) [nM]
CNS(=O)(=O)c1ccccc1Nc1nc(Nc2cc(N3CCN(C(C)=O)CC3)ccc2OC)ncc1Br [Example 3-34] | 240 | 100 | 130 | – | – | – | – | –
CNS(=O)(=O)c1ccccc1Nc1nc(Nc2ccc(N3CCN(C(C)=O)CC3)cc2OC)ncc1Br [Example 3-46] | 180 | 100 | 300 | 4 | – | – | – | –
CNS(=O)(=O)c1ccccc1Nc1nc(Nc2cc(N(C)C)ccc2OC)ncc1Br [Example 3-64] | 700 | 130 | 210 | 5 | – | – | – | –
CNS(=O)(=O)c1ccccc1Nc1nc(Nc2ccc(N3CCCC(C(N)=O)C3)cc2OC)ncc1Br (centres unmarked) [Example 3-68] | 630 | – | 1000 | – | – | – | – | 5.5
CNS(=O)(=O)c1ccccc1Nc1nc(Nc2cc(N3CCC(N4CCCCC4)CC3)ccc2OC)ncc1Br [Example 3-69] | 110 | 200 | 580 | 4 | – | – | – | –
CNS(=O)(=O)c1ccccc1Nc1nc(Nc2cc(OC3CCN(C)CC3)ccc2OC)ncc1Br [Example 3-76] | 1300 | 290 | 700 | 15 | – | – | – | –
CNC(=O)c1ccccc1Nc1nc(Nc2cc(N3CCOCC3)ccc2OC)ncc1Cl [Example 7-6] | 1090 | 800 | 250 | 17 | – | – | – | –
CNC(=O)c1ccccc1Nc1nc(Nc2cc(N3CCN(C(C)=O)CC3)ccc2OC)ncc1Cl [Example 7-30] | 300 | – | 1000 | 2.1 | – | – | – | –
CNC(=O)c1ccccc1Nc1nc(Nc2ccc(N3CCOCC3)cc2OC)ncc1Cl [Example 7A, 2-[5-Chloro-2-(2-methoxy-4-morpholin-4-yl-phenylamino)-pyrimidin-4-ylamino]-N-methyl-benzamide] | 470 | 210 | 40 | – | – | – | – | –
CCNC(=O)c1ccccc1Nc1nc(Nc2ccc(N3CCOCC3)cc2OC)ncc1Cl [Example 9-1] | 1000 | 360 | 600 | 22 | – | – | – | –
CCNC(=O)c1ccccc1Nc1nc(Nc2ccc(OC3CCN(C)CC3)cc2OC)ncc1Cl [Example 9-6] | 400 | 3000 | 300 | 23 | – | – | – | –
COc1cc(N2CCOCC2)ccc1Nc1ncc(Cl)c(Nc2cccc3c2C(=O)N(C)C3)n1 [Example 12-1, 7-[5-Chloro-2-(2-methoxy-4-morpholin-4-yl-phenylamino)-pyrimidin-4-ylamino]-2-methyl-2,3-dihydro-isoindol-1-one] | 400 | 90 | 220 | 2.5 | – | – | – | –
COc1cc(N2CCOCC2)ccc1Nc1ncc(Cl)c(Nc2ccccc2C(=O)N(C)C)n1 [Example 14-1] | 1470 | 200 | 280 | 19 | – | – | – | –
COc1cc(N2CCOCC2)ccc1Nc1ncc(Cl)c(Nc2ccccc2C(=O)NC(C)C)n1 [Example 14-2] | 1100 | 2000 | 1000 | 190 | – | – | – | –
COc1cc(N2CCN(C)CC2)ccc1Nc1ncc(Cl)c(Nc2ccccc2S(=O)(=O)NC(C)C)n1 [Example 19-5] | – | 200 | – | 1.8 | 670 | 70 | – | –
CNS(=O)(=O)c1ccccc1Nc1nc(Nc2ccc(N3CCN(C)CC3)cc2OC)ncc1Cl [Example 20-6] | 140 | 360 | 49000 | 5 | – | – | – | –
CNS(=O)(=O)c1ccccc1Nc1nc(Nc2ccc(N3CCC(N4CCCCC4)CC3)cc2OC)ncc1Cl [Example 20-8] | – | – | – | – | 50 | 290 | – | –
CCCS(=O)(=O)c1ccccc1Nc1nc(Nc2ccc(N3CCN(C(C)=O)C(C)(C)C3)cc2OC)ncc1Cl [Example 26-11] | 780 | 400 | 500 | 4.4 | – | – | – | –
CCCS(=O)(=O)c1ccccc1Nc1nc(Nc2cc(N3CCOCC3)ccc2OC)ncc1Cl [Example 26-17] | 100 | 300 | 260 | 17 | – | – | – | –
CCCS(=O)(=O)c1ccccc1Nc1nc(Nc2ccc(N3CCC(N(C)C)C3)cc2OC)ncc1Cl (centres unmarked) [Example 26-24] | – | 500 | – | 1 | 480 | 900 | – | –
COc1cc(N2CCOCC2)ccc1Nc1ncc(Br)c(Nc2ccccc2S(=O)(=O)N(C)C)n1 [Example 51, 2-[5-bromo-2-(2-methoxy-4-morpholin-4-yl-phenylamino)-pyrimidin-7-ylamino]-N,N-dimethyl-benznensulfonamide] | 190 | 13 | – | 8.1 | – | – | 200 | –
CNS(=O)(=O)c1cc(F)ccc1Nc1nc(Nc2ccc(N3CCOCC3)cc2OC)ncc1Br [Example 52, 2-[5-Bromo-2-(2-methoxy-4-morpholin-4-yl-phenylamino)-pyrimidin-4-ylamino]-5-fluoro-N-methyl-benzenesulfonamide] | 410 | 200 | – | 13 | – | – | < 80 | –
